Some targets named below: Motilin receptor (Homo sapiens, UniProt O43193); Adenosine receptor A2a (Homo sapiens, UniProt P29274); Melanocortin receptor 3 (Homo sapiens, UniProt P41968).
The target of assay [1] is cGMP-inhibited 3',5'-cyclic phosphodiesterase 3A (Homo sapiens, UniProt Q14432). In kind it is functional.
A further assay addresses T1, Adenosine receptor A3 (Homo sapiens, UniProt P0DMS8).
T1 sequence (P0DMS8 whole entry): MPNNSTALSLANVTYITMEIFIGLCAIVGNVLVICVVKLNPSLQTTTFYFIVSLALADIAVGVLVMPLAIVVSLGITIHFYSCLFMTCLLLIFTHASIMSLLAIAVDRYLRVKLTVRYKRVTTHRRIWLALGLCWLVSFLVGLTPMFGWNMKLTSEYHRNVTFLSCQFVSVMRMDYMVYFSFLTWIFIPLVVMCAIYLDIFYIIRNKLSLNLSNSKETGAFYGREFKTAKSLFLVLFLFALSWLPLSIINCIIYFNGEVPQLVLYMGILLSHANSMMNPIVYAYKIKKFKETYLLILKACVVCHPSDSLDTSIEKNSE

Assay [2] concerns the target Gamma-aminobutyric acid receptor subunit alpha-1 (Rattus norvegicus, UniProt P62813).
The target of a further assay is T2, Adenosine receptor A1 (Homo sapiens, UniProt P30542).
T2 sequence (P30542 whole entry): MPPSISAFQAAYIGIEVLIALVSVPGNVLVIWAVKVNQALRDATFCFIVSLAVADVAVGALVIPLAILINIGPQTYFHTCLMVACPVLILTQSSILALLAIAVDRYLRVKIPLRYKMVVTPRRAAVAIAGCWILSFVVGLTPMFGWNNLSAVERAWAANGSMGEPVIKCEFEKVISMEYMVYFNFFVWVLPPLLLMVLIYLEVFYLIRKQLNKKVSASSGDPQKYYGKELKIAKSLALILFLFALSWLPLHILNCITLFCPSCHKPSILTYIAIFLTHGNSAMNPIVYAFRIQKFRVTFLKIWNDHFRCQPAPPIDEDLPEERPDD

The target of assay [3] is T3, Equilibrative nucleoside transporter 1 (Homo sapiens, UniProt Q99808).
T3 sequence (Q99808 whole entry): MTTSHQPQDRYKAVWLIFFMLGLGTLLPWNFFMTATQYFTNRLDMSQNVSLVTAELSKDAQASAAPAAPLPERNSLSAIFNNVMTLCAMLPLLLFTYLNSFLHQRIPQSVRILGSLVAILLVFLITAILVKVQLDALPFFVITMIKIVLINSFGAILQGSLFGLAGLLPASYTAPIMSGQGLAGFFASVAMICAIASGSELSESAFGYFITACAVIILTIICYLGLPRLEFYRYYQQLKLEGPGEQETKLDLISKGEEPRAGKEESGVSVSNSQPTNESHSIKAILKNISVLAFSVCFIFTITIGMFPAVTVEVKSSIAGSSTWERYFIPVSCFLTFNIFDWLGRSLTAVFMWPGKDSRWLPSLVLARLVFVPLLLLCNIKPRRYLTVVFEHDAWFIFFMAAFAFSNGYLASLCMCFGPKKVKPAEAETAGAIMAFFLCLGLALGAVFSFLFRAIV

Assay [4] has as its target 3',5'-cyclic-AMP phosphodiesterase 4D (Homo sapiens, UniProt Q08499). The assay is classed as functional.
The target in assay [5] is T4, Cholecystokinin receptor type A (Homo sapiens, UniProt P32238).
T4 sequence (P32238 whole entry): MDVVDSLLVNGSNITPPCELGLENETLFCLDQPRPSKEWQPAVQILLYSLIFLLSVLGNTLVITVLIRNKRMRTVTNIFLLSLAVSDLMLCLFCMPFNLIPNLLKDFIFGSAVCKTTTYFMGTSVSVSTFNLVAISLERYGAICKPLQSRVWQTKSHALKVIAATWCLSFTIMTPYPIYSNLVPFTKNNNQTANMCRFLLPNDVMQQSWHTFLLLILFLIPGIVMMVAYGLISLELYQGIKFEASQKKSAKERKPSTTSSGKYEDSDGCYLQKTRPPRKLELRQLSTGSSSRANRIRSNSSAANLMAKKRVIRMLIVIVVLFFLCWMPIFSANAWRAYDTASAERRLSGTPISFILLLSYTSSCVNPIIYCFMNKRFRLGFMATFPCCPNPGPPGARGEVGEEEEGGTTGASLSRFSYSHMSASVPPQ

For assay [6], the target named is T5, Type-1 angiotensin II receptor (Homo sapiens, UniProt P30556).
T5 sequence (P30556 whole entry): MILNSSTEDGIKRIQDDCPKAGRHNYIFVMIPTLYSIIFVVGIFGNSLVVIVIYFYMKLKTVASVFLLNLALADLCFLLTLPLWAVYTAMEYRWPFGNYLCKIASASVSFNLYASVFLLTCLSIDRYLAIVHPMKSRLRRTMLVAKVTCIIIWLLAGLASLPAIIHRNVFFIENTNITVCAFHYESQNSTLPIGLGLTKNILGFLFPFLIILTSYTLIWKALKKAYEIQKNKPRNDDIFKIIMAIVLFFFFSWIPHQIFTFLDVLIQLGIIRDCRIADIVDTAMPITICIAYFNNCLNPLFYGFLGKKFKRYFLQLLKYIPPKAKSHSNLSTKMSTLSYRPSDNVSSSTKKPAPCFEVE

In assay [7] the target is Neuronal acetylcholine receptor subunit alpha-4 (Homo sapiens, UniProt P43681).

Each structure is given as a SMILES string.
Note: assay procedure not described here.

Chain of 3',5'-cyclic-AMP phosphodiesterase 4D (Q08499 whole entry): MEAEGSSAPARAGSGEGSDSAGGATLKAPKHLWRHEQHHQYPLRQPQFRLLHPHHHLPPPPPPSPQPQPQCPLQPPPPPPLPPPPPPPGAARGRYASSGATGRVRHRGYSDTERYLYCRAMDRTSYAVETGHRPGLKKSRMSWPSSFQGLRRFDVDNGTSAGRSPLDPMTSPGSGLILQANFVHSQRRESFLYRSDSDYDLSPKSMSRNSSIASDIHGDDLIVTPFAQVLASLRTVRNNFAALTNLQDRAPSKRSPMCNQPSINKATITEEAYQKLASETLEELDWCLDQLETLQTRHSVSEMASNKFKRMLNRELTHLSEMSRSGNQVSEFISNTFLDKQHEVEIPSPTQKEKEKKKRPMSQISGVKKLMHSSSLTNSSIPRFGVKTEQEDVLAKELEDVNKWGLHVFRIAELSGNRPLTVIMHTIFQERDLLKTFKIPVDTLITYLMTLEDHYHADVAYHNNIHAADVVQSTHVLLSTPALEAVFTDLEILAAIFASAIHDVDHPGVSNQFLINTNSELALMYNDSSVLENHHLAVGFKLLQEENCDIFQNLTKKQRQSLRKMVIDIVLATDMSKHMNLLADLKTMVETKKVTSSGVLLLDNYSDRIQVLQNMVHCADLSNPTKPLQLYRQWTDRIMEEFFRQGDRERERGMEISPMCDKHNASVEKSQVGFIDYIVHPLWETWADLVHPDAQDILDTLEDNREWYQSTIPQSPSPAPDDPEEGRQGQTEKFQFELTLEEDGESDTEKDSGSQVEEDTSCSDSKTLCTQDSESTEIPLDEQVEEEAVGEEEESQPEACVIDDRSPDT
Chain of Adenosine receptor A2a (P29274 whole entry): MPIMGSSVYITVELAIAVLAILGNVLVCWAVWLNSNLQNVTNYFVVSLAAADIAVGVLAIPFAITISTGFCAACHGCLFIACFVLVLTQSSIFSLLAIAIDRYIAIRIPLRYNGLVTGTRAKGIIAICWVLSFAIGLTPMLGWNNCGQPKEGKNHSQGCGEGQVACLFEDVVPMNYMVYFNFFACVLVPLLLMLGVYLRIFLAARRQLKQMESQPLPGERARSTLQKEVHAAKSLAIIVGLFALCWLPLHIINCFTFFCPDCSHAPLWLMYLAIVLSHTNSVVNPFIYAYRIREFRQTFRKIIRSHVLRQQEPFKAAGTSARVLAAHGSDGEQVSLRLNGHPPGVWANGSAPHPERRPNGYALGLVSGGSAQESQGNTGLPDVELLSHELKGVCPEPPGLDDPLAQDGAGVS
Chain of Gamma-aminobutyric acid receptor subunit alpha-1 (P62813 whole entry): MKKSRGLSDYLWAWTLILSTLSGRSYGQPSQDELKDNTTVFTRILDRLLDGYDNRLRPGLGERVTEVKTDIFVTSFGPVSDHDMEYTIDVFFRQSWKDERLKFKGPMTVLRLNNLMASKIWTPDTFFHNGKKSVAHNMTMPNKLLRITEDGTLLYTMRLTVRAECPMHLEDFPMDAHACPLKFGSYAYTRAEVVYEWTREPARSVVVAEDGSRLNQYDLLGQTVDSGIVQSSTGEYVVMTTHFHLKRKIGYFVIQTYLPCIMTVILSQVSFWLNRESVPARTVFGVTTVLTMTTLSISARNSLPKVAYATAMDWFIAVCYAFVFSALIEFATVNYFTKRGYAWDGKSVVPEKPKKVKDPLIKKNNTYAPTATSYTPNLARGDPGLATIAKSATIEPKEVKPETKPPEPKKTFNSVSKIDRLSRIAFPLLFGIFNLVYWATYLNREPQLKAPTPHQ
Chain of Neuronal acetylcholine receptor subunit alpha-4 (P43681 whole entry): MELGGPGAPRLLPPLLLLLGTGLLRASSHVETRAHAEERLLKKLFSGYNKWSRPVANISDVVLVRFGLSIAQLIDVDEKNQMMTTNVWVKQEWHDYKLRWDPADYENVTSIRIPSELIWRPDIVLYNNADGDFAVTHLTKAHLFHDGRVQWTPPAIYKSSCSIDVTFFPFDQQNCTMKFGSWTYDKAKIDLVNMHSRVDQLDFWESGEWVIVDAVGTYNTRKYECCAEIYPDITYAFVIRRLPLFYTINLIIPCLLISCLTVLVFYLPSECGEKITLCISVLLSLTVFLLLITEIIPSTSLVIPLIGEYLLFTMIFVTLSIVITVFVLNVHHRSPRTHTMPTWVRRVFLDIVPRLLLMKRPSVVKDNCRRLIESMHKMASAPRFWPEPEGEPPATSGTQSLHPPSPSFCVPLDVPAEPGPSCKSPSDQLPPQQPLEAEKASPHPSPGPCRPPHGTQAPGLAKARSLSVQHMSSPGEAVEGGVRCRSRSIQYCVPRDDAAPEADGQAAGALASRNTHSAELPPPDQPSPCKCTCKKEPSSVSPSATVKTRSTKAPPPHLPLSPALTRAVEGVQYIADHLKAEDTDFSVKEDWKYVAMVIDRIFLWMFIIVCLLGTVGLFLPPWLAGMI
Chain of Motilin receptor (O43193 whole entry): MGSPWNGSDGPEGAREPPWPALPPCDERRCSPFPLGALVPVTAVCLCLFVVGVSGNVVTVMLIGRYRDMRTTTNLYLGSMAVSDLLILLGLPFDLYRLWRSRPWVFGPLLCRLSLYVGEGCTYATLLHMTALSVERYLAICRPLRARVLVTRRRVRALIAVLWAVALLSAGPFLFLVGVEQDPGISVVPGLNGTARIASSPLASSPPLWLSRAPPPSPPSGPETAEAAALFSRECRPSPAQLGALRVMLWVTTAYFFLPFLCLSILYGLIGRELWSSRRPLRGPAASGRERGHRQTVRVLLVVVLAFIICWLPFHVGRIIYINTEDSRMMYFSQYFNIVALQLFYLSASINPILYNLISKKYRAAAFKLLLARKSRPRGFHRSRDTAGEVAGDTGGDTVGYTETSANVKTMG
Chain of Melanocortin receptor 3 (P41968 whole entry): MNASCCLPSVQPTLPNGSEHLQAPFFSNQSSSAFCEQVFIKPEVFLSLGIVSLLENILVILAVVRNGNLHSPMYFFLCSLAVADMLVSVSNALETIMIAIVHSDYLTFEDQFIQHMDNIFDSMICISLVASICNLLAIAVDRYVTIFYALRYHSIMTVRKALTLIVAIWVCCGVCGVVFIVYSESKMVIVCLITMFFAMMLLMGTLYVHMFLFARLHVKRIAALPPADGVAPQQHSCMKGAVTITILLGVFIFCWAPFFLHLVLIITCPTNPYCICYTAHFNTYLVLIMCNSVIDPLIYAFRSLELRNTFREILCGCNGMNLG
Chain of cGMP-inhibited 3',5'-cyclic phosphodiesterase 3A (Q14432 whole entry): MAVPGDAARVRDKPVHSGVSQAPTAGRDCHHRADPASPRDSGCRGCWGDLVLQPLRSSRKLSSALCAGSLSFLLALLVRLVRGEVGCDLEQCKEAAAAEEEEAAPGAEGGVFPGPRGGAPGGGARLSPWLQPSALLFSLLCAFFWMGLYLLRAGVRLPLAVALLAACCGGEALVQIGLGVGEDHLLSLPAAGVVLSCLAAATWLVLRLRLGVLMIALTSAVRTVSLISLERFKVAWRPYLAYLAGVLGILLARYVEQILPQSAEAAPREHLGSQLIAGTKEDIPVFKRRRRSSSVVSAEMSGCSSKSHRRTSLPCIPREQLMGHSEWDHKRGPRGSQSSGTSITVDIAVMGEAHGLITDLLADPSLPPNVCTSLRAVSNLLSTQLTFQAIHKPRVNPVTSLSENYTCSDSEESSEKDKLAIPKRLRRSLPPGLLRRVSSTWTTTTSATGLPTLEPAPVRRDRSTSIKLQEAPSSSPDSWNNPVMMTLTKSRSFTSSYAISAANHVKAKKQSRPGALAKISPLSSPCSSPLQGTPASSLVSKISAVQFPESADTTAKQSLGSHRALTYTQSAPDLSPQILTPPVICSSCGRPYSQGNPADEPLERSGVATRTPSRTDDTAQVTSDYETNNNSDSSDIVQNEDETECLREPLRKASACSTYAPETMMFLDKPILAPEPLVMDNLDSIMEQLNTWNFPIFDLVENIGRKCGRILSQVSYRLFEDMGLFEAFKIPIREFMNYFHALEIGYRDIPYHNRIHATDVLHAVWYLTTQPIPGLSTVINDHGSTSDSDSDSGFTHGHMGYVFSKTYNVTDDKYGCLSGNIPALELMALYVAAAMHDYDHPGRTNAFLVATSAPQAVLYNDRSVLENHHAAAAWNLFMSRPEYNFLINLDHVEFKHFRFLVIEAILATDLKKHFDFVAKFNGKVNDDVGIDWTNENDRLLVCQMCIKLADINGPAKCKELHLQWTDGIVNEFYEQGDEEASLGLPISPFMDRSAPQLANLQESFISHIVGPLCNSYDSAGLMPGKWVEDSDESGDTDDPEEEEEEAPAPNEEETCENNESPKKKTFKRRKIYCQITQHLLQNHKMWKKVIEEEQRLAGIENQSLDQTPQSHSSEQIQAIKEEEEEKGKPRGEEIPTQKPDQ

For the molecule `CCC[C@H](NC(=O)[C@@H]1[C@H]2CCC[C@H]2CN1C(=O)[C@@H](NC(=O)[C@@H](NC(=O)c1cnccn1)C1CCCCC1)C(C)(C)C)C(=O)C(=O)NC1CC1`, the AC50 – broadly, the concentration giving half of the maximal activity seen – in assay [1] is more than 30 µM; at Adenosine receptor A3, more than 30 µM; in [2] it was more than 10 µM; at Adenosine receptor A1, more than 30 µM; at Motilin receptor it was more than 10 µM; in assay [3], more than 30 µM. The half-maximal activity concentration (AC50) was more than 30 µM in assay [4]; more than 30 µM on Adenosine receptor A2a; more than 30 µM in assay [5]; more than 30 µM at Melanocortin receptor 3; more than 30 µM in [6]; more than 10 µM in assay [7].
Regarding `CC(=O)N[C@@H](CS)C(=O)O` [ACETYLCYSTEINE], the concentration at half-maximal activity (AC50) (in [1]; at Adenosine receptor A3; in assay [2]; on Adenosine receptor A1; at Motilin receptor; in [3]) was more than 30 µM in each case. Besides, the AC50 (in assay [4]; on Adenosine receptor A2a; in assay [5]; on Melanocortin receptor 3; in assay [6]; in [7]) was more than 30 µM throughout.
Consider `C=CCNc1nc(NCC=C)nc(N2CCN(C(c3ccc(F)cc3)c3ccc(F)cc3)CC2)n1` [ALMITRINE], for which the half-maximal activity concentration (AC50) (in [1]; at Adenosine receptor A3; in assay [2]; on Adenosine receptor A1; at Motilin receptor; in assay [3]) was more than 30 µM throughout. Moreover, the concentration at half-maximal activity (AC50) (in [4]; on Adenosine receptor A2a; in assay [5]; on Melanocortin receptor 3; in assay [6]; in assay [7]) was more than 30 µM each time.
`CN1CCC(=C2c3ccccc3CCc3cccnc32)CC1` [AZATADINE]: the AC50 in [1] was more than 30 µM; on Adenosine receptor A3 it was more than 30 µM; in [2], more than 10 µM; at Adenosine receptor A1, more than 30 µM; at Motilin receptor, more than 10 µM; in assay [3], more than 30 µM. Also, the half-maximal activity concentration (AC50) in assay [4] is more than 30 µM; at Adenosine receptor A2a, more than 30 µM; in assay [5] it was more than 30 µM; on Melanocortin receptor 3 it was more than 30 µM; in assay [6] it was more than 30 µM; in assay [7], more than 10 µM.
Regarding `CCCCC(=O)O[C@]1(C(=O)CO)[C@@H](C)C[C@H]2[C@@H]3CCC4=CC(=O)C=C[C@]4(C)[C@@]3(F)[C@@H](O)C[C@@]21C` [BETAMETHASONE VALERATE], the AC50 in assay [1] is more than 30 µM; on Adenosine receptor A3, more than 30 µM; in assay [2], more than 10 µM; on Adenosine receptor A1 it was more than 30 µM; on Motilin receptor it was more than 10 µM; in [3] it was more than 30 µM. Also, the AC50 in [4] is more than 30 µM; on Adenosine receptor A2a, more than 30 µM; in assay [5], more than 30 µM; at Melanocortin receptor 3 it was more than 30 µM; in assay [6], more than 30 µM; in assay [7] it was more than 10 µM.
As for `COCC1=C(C(=O)O)N2C(=O)[C@@H](NC(=O)/C(=N\OC)c3csc(N)n3)[C@H]2SC1` [CEFPODOXIME], the AC50 (in assay [1]; at Adenosine receptor A3; in assay [2]; on Adenosine receptor A1; on Motilin receptor; in assay [3]) was more than 30 µM in each case. Moreover, the AC50 (in assay [4]; on Adenosine receptor A2a; in assay [5]; on Melanocortin receptor 3; in assay [6]; in [7]) was more than 30 µM in each case.
For `CC1OC2(CS1)CN1CCC2CC1` (configuration not stated) [CEVIMELINE], the AC50 is more than 30 µM in assay [1]; more than 10 µM on Adenosine receptor A3; more than 10 µM in [2]; more than 10 µM at Adenosine receptor A1; more than 10 µM at Motilin receptor; more than 10 µM in assay [3]. Besides, the AC50 in assay [4] was more than 30 µM; on Adenosine receptor A2a, more than 10 µM; in assay [5], more than 10 µM; on Melanocortin receptor 3 it was more than 10 µM; in [6], more than 10 µM; in assay [7], more than 10 µM.
In the case of `COc1cc(N)c(Cl)cc1C(=O)NC1CCN(Cc2ccccc2)CC1` [CLEBOPRIDE], the half-maximal activity concentration (AC50) in assay [1] is 7.7 µM; at Adenosine receptor A3 it was more than 30 µM; in assay [2] it was more than 30 µM; on Adenosine receptor A1, more than 30 µM; at Motilin receptor, more than 30 µM; in assay [3], more than 30 µM. In addition, the AC50 in assay [4] was 2.9 µM; on Adenosine receptor A2a it was more than 30 µM; in assay [5], more than 30 µM; on Melanocortin receptor 3, more than 30 µM; in assay [6] it was more than 30 µM; in [7], 24 µM.
For the molecule `Nc1ncn([C@H]2C[C@H](O)[C@@H](CO)O2)c(=O)n1` [DECITABINE], the concentration at half-maximal activity (AC50) (in assay [1]; at Adenosine receptor A3; in [2]; at Adenosine receptor A1; at Motilin receptor; in [3]) was more than 30 µM each time. Also, the concentration at half-maximal activity (AC50) (in assay [4]; at Adenosine receptor A2a; in assay [5]; on Melanocortin receptor 3; in assay [6]; in assay [7]) was more than 30 µM each time.
Take `CC(C)(C)C(=O)OCC(=O)[C@H]1CC[C@H]2[C@@H]3CCC4=CC(=O)CC[C@]4(C)[C@H]3CC[C@]12C` [DESOXYCORTICOSTERONE PIVALATE]: the AC50 was more than 30 µM in [1]; more than 10 µM at Adenosine receptor A3; more than 10 µM in [2]; more than 10 µM at Adenosine receptor A1; more than 10 µM at Motilin receptor; more than 10 µM in assay [3]. Also, the concentration at half-maximal activity (AC50) was more than 30 µM in [4]; more than 10 µM at Adenosine receptor A2a; more than 10 µM in [5]; more than 10 µM at Melanocortin receptor 3; more than 10 µM in assay [6]; more than 10 µM in assay [7].
Regarding `CC(CCc1ccc(O)cc1)NCCc1ccc(O)c(O)c1` (configuration not stated) [DOBUTAMINE], the AC50 in assay [1] was more than 30 µM; at Adenosine receptor A3, 22.9 µM; in assay [2] it was more than 30 µM; on Adenosine receptor A1 it was more than 30 µM; on Motilin receptor, more than 30 µM; in assay [3] it was more than 30 µM. The half-maximal activity concentration (AC50) (in [4]; on Adenosine receptor A2a; in assay [5]; at Melanocortin receptor 3; in assay [6]; in assay [7]) was more than 30 µM in each case.

These data come from ChEMBL document CHEMBL5291721, “A preclinical secondary pharmacology resource illuminates target-adverse drug reaction associations of marketed drugs” (Nat Commun, 2023).
